Assay results taken from patent US20220162215A1, “COMPOSITIONS AND METHODS OF USING THE SAME FOR TREATMENT OF NEURODEGENERATIVE AND MITOCHONDRIAL DISEASE” (MITOKININ, INC., priority 2019, published 2022).
Read-outs that look alike come from different tables or passages of the source.

Assays:
HeLa MKYP cells [1] = assay: Human mitophagy assay (HeLa MKYP, mtKeima FACS, FCCP/oligomycin); format: cell-based; settings: Homo sapiens, HeLa
Experimental: Briefly, HeLa MKYP cells were plated at 10,000 cells/well in 96 well plates along with compounds at various concentrations. Following 16 hrs of incubation, cells were treated with 1 uM FCCP/oligomycin for 6 hours, then analyzed via FACS for the presence of mitochondria in lysosomes (as determined by an emissions spectrum shift from the pH-sensitive mtKeima tag). Examples are shown in FIG. 1 through FIG. 13 below.

HeLa MKYP cells [2] = assay: Toxicity / cell death measured by DAPI staining (take-up); format: cell-based
Experimental: H2O2 treatment was performed as a control for cell death as measured by DAPI staining.
Briefly, HeLa MKYP cells were plated at 10,000 cells/well in 96 well plates along with compounds at various concentrations. Following 16 hrs of incubation, cells were treated with 1 uM FCCP/oligomycin for 6 hours, then analyzed via FACS for the presence of mitochondria in lysosomes (as determined by an emissions spectrum shift from the pH-sensitive mtKeima tag).

[3] = Visual inspection of crystallization; format: physicochemical; design: key: 1: yes crystals; 0: no crystals; settings: Tables 5A-5D
Experimental: (§1) Briefly, the Hela MKYP (Mito-Keima/YFP-Parkin) cells were seeded at 10K cells/well. EP/MTK compounds were added at seeding (cells were still in suspension). The cells were incubated with the EP/MTK compounds for 16 hours, then 1 μM FCCP/oligomycin was added for 6 hours. Prior to harvesting, cells were scored by eye under 20× magnification for the presence or absence of crystalline or aggregated compound, or round cells.

[4] = system: Hela MKYP (Mito-Keima/YFP-Parkin) cells; assay: Inspection of round cells; settings: Tables 6A-6D
Experimental: as §1

[5] = Table 3, read-out: Potency at 1 μM F/O toxin* (EC50 of mitophagy activation)
[6] = Table 3 Supplement A, as measured in Table 3, read-out: Potency (EC50 Max Mitophagy) (μM)*

Compound | EC50 (HeLa MKYP cells [1]; [5]) [µM] | EC50 (HeLa MKYP cells [1]; [6]) [µM] | Toxicity (% positive for DAPI takeup @ 50 μM) (HeLa MKYP cells [2]; Table 3) [%] | Toxicity (% positive for DAPI take-up at 50 μM)* (HeLa MKYP cells [2]; Table 3 Supplement A) [%] | also measured
C[C@H](Nc1ncnc2[nH]cnc12)c1ccccc1 [Compound 27] | 2 | 2.09 | 11.7 | 13.52 | Visual inspection of crystallization ([3]; 1.6 μM): 0; Visual inspection of crystallization ([3]; 3.1 μM): 0; Visual inspection of crystallization ([3]; 6.3 μM): 0; Visual inspection of crystallization ([3]; 12.5 μM): 0; Visual inspection of crystallization ([3]; 25.0 μM): 0; Visual inspection of crystallization ([3]; 50.0 μM): 0; Inspection of round cells ([4]; 1.6 μM): 0; Inspection of round cells ([4]; 3.1 μM): 0; Inspection of round cells ([4]; 6.3 μM): 0; Inspection of round cells ([4]; 12.5 μM): 0; Inspection of round cells ([4]; 25.0 μM): 0; Inspection of round cells ([4]; 50.0 μM): 0
OC[C@@H](Nc1ncnc2[nH]c(C(F)(F)F)cc12)c1ccccc1 [Compound 77] | 4.4 | 4.41 | 30.3 | 30.27 | 
FC(F)(F)c1cc2c(NC3CCN(Cc4ccccc4)CC3)ncnc2[nH]1 [Compound 78] | 21.4 | 21.4 | 43.9 | 43.86 | 
O=S1(=O)Cc2ccccc2C(Nc2ncnc3[nH]c(C(F)(F)F)cc23)C1 (centres unmarked) [Compound 79] | > 50 | > 25 | 13.2 | 13.18 | 
CN1CC[C@H](Nc2ncnc3[nH]c(C(F)(F)F)cc23)c2ccccc21 [Compound 80] | 1.9 | 1.81 | 28.1 | 8.7 | 
c1ccc2c(c1)OCC[C@H]2Nc1ncnc2[nH]c(C3CC3)cc12 [Compound 111] | 2 |  | 17.3 |  | EC50 (HeLa MKYP cells [1]; Table 3 Supplement B, read-out: Mitophagy EC50 (HeLa mKeima assay)): 1.98 µM; Max cell death at 25 uM compound, 1 uM FO (HeLa MKYP cells [2]; Table 3 Supplement B, 25 uM compound, 1 uM FO): 17.3%; Cell death at 25 μM (no FO) (HeLa MKYP cells [2]; Table 3 Supplement B, 25 μM, no FO): 7.26%
CCCCNc1ncnc2[nH]c(C3CC3)nc12 [Compound 34886, N-butyl-8-cyclopropyl-9H-purin-6-amine] |  |  |  |  | EC50 (HeLa MKYP cells [1]; Table 4, read-out: Potency (EC50 Max Mitophagy)): 9.1 µM; Toxicity (% positive for DAPI takeup @ 50 μM) (HeLa MKYP cells [2]; Table 4): 9.1%
c1coc(CNc2ncnc3[nH]c(C4CCC4)nc23)c1 [EP-0035338, 8-cyclobutyl-N-(2-furylmethyl)-9H-purin-6-amine] |  | > 25 |  | 3.04 | 
CCCCNc1ncnc2[nH]c(C3CCC3)nc12 [EP-0035339, N-butyl-8-cyclobutyl-9H-purin-6-amine] |  | > 25 |  | 6.13 | 
COc1cc(CNc2ncnc3[nH]c(C4CC4)nc23)ccn1 [EP-0036032, 8-cyclopropyl-N-[(2-methoxy-4-pyridyl)methyl]-9H-purin-6-amine] |  | > 25 |  | 7.06 | 
c1ncc(CNc2ncnc3[nH]c(C4CC4)nc23)cn1 [EP-0036050, 8-cyclopropyl-N-(pyrimidin-5-ylmethyl)-9H-purin-6-amine] |  | > 25 |  |  | Toxicity (% positive for DAPI take-up at 50 μM)* (HeLa MKYP cells [2]; human): 7.06%
